Reference: patent US20240327364A1, “THERAPEUTIC TARGETING OF GPR68 TO INDUCE FERROPTOSIS” (University Of Maryland, Baltimore, priority 2023, published 2024)
Where two headings read alike, the source gives them in different places.

Columns and labels:
zebrafish embryo = test: Zebrafish embryo phenotype; type: in vivo
Description: A chemical screen for small molecules that perturb embryonic development (dorsoventral axis) in zebrafish was performed as previously described (see Chen et al., 2009; Hao et al., 2013; Williams et al., 2015; Yu et al., 2008)). Briefly, pairs of WT zebrafish were mated, and fertilized eggs were arrayed in 96-well microtiter plates (5 embryos/well) containing […] E3 water. At 4 hours post fertilization (pf), a small molecule library from Vanderbilt High Throughput Screening Facility was added to each well to a final concentration of 10 μM. Embryos were incubated at 28.5 C until 24 and 48 hours pf, when they were examined for gross morphologic changes indicative of reproducible embryonic defects (dorsalization of the embryonic axis). A total of 30,000 compounds were screened. To discover novel small molecule modulators of embryonic development an unbiased screen of ˜30,000 small molecules was conducted, in which the compounds were assayed for their ability to induce phenotypic changes in the morphology of zebrafish. Further information on these assays can be found in Hao et al., 2013 and Williams et al., 2015. […] This compound was identified based on the phenotype of aberrant pigmentation. Compare FIG. 2B and FIG. 2C, which show a dorsal view of a representative DMSO vehicle control-treated zebrafish embryo at 48 hours pf and a dorsal view of a representative OGM1 (10 uM)-treated zebrafish embryo at 48 hours pf. […] Since GPCRs represent >30% of targets for FDA-approved small molecules and are known to modulate cell migration, activity against 158 GPCRs was assessed based on their chemical structures. GPCRs (158) were tested for agonist and antagonist activity at 10 μM. […] Chemical segregation analysis of zebrafish phenotype was conducted to further identify the inhibitory activity responsible for the zebrafish phenotype. […] The identities of the R groups in Formula A are shown below in Table 5.

Lpa1 = Lpa1 (Homo sapiens, UniProt Q92633); test: Lpa1 activity of OGM analogs (Table 5); type: cell-based
Description: GPCR profiling assays were performed by Millipore (St. Louis, MO) using in cells expressing Gα15, a promiscuous G protein that enhances GPCR coupling to downstream Ca2+ signaling pathways. KinomeScan was conducted by DiscoveRx (Fremont, CA). Since GPCRs represent >30% of targets for FDA-approved small molecules and are known to modulate cell migration, activity against 158 GPCRs was assessed based on their chemical structures. GPCRs (158) were tested for agonist and antagonist activity at 10 μM. […] Chemical segregation analysis of zebrafish phenotype was conducted to further identify the inhibitory activity responsible for the zebrafish phenotype. […] The identities of the R groups in Formula A are shown below in Table 5.

GPR68/OGR1 = target: T1, GPR68/OGR1 (Homo sapiens, UniProt Q15743); test: CHEM1-OGR1 cells Fluo-8 calcium assay, acidified media pH 6.4; type: cell-based
T1 construct: host or cells: Chem-1 (CHEM1-OGR1) cells
Description: Briefly, the methods were: On the day before the assay 20,000 cells per well of CHEM1-OGR1 cells were plated in 10% DMEM containing 10% FBS and 1% Pen/Strep into a 96 well plate. After 24 hours media was removed and cells were stained with 80 μL Fluo-8 calcium indicator dye according to manufacturer's protocol. After staining cells were treated with 20 uL of 4× concentration of test compounds. Using kinetic imaging in the Lionheart HCS fluorescence intensity was continuously measure at 10 frames per second, for 5 seconds before 100 μL of acidified media was added to the well resulting in a pH of 6.4. A ratio of fluorescence intensities prior to addition and at peak were calculated and averaged. The resulting data were platted and using a 4 parameter logistic regression EC50 (the concentration causing 50% effective inhibition) for each test compound was determined.

[1] = concentrations up to 200× the IC50
[2] = concentration causing 50% effective inhibition of calcium response to pH 6.4, read-out: EC50

T1 sequence (Q15743 whole entry): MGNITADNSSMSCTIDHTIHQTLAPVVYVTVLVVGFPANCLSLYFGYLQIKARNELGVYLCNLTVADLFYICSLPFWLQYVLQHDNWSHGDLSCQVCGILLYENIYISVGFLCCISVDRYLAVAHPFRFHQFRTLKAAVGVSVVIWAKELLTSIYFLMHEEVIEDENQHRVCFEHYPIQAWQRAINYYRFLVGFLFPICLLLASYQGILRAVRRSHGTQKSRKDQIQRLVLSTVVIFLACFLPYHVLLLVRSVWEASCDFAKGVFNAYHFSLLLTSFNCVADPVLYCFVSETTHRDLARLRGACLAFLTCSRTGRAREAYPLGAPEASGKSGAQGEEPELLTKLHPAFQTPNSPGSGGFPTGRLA
Lpa1, sequence (Q92633 whole entry, species assumed): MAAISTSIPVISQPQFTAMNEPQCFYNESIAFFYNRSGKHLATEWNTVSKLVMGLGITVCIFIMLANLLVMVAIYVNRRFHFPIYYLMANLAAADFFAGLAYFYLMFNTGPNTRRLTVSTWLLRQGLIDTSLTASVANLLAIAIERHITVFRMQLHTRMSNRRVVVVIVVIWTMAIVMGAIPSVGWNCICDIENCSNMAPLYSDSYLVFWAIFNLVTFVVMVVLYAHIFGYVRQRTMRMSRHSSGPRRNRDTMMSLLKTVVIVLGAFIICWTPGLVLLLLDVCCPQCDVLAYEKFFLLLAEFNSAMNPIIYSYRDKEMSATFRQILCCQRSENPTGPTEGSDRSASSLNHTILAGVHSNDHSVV

SMILES | EC50 (GPR68/OGR1; [2]) [nM] | also measured
Cc1noc(-c2ccc(CSCCC(=O)O)cc2)c1NC(=O)OC(C)c1ccccc1Cl (stereo not drawn) [LPAi] | – | induction of zebrafish phenotype (zebrafish embryo; concentrations up to 50 μM, ˜200× its IC50): failed to induce the phenotype; induction of zebrafish phenotype (zebrafish embryo; [1]): failed to induce a noticeable phenotype; IC50 (Lpa1): 250 nM
Cc1ccc2c(c1)C1(NN=C(c3ccccc3)S1)C(=O)N2 (stereo not drawn) [OGM3] | – | IC50 (Lpa1): 6400 nM; EC50 (GPR68/OGR1; Table 5, read-out: GPR68): 760 nM
CCc1ccc2c(c1)C1(NN=C(c3ccccc3O)S1)C(=O)N2 (stereo not drawn) [OGM4] | – | IC50 (Lpa1): 1400 nM; EC50 (GPR68/OGR1; Table 5, read-out: GPR68): 3400 nM
CN1C(=O)C2(NN=C(c3cccc4ccccc34)S2)c2ccccc21 (stereo not drawn) [OGM6] | – | EC50 (GPR68/OGR1; Table 5, read-out: GPR68): 1500 nM
O=C1Nc2ccc(Cl)cc2C12NN=C(c1ccccc1)S2 (stereo not drawn) [OGM7] | 1170 | –
O=C1Nc2ccccc2C12NN=C(c1ccccc1)S2 (stereo not drawn) [OGM8] | 2740 | –
O=C1Nc2ccc(F)cc2C12NN=C(c1ccccc1)S2 (stereo not drawn) [OGM9] | 2840 | –
COc1ccc(C2=NNC3(S2)C(=O)Nc2ccccc23)cc1 (stereo not drawn) [OGM10] | 1440 | –
COc1ccc(C2=NNC3(S2)C(=O)Nc2ccc(Cl)cc23)cc1 (stereo not drawn) [OGM11] | 4390 | –
COc1ccc(C2=NNC3(S2)C(=O)Nc2ccc(F)cc23)cc1 (stereo not drawn) [OGM12] | 756 | –
O=C1Nc2ccccc2C12NN=C(c1ccc(Cl)cc1)S2 (stereo not drawn) [OGM13] | < 826 | –
O=C1Nc2ccc(F)cc2C12NN=C(c1ccc(Cl)cc1)S2 (stereo not drawn) [OGM14] | 1830 | –
Cc1ccc(C2=NNC3(S2)C(=O)Nc2ccccc23)cc1 (stereo not drawn) [OGM15] | 1060 | –
Cc1ccc(C2=NNC3(S2)C(=O)Nc2ccc(Cl)cc23)cc1 (stereo not drawn) [OGM16] | 785 | –
Cc1ccc(C2=NNC3(S2)C(=O)Nc2ccc(F)cc23)cc1 (stereo not drawn) [OGM18] | 769 | –
O=C1Nc2ccc(Cl)cc2C12NN=C(c1ccc(Cl)cc1)S2 (stereo not drawn) [OGM19] | 2320 | –
O=C1Nc2ccccc2C12NN=C(c1ccc(F)cc1)S2 (stereo not drawn) [OGM20] | 4000 | –
O=C1Nc2ccc(Cl)cc2C12NN=C(c1ccc(F)cc1)S2 (stereo not drawn) [OGM21] | 722 | –
COc1ccc2c(c1)C1(NN=C(c3ccc(Cl)cc3)S1)C(=O)N2 (stereo not drawn) [OGM22] | 669 | –
O=C1Nc2ccc(Cl)cc2C12NN=C(c1cccc3ccccc13)S2 (stereo not drawn) [OGM23] | 500 | –

SMILES | EC50 (GPR68/OGR1; [2]) [nM] | also measured
COc1ccc2cc(C3=NNC4(S3)C(=O)Nc3ccc(Cl)cc34)ccc2c1 (stereo not drawn) [OGM24] | 90 | –
COc1ccc2cc(C3=NNC4(S3)C(=O)Nc3ccc(F)cc34)ccc2c1 (stereo not drawn) [OGM26] | 655 | –
CCc1ccc2c(c1)C1(NN=C(c3ccc4cc(OC)ccc4c3)S1)C(=O)N2 (stereo not drawn) [OGM27] | > 10000 | –
CCc1ccc2c(c1)C1(NN=C(c3ccc(OC)cc3)S1)C(=O)N2 (stereo not drawn) [OGM28] | > 10000 | –
COc1ccc(C2=NNC3(S2)C(=O)N(CC=C(C)C)c2ccc(Cl)cc23)cc1 (stereo not drawn) [OGM29] | > 10000 | –
COc1ccc(C2=NNC3(S2)C(=O)N(CC=C(C)C)c2ccccc23)cc1 (stereo not drawn) [OGM30] | > 10000 | –
CC(C)=CCN1C(=O)C2(NN=C(c3ccc(Cl)cc3)S2)c2cc(Cl)ccc21 (stereo not drawn) [OGM31] | 9080 | –
CC(C)=CCN1C(=O)C2(NN=C(c3cccc4ccccc34)S2)c2cc(Cl)ccc21 (stereo not drawn) [OGM32] | > 10000 | –
CC(C)=CCN1C(=O)C2(NN=C(c3cccc4ccccc34)S2)c2ccccc21 (stereo not drawn) [OGM33] | > 10000 | –
COc1ccc2cc(C3=NNC4(S3)C(=O)N(CC=C(C)C)c3ccccc34)ccc2c1 (stereo not drawn) [OGM34] | > 10000 | –
COc1ccc2cc(C3=NNC4(S3)C(=O)N(CC=C(C)C)c3ccc(Cl)cc34)ccc2c1 (stereo not drawn) [OGM35] | > 10000 | –
CN1C(=O)C2(NN=C(c3ccccc3)S2)c2cc(Br)ccc21 (stereo not drawn) [OGM36] | 5600 | –
COC(=O)c1ccc2c(c1)C1(NN=C(c3ccc4ncccc4c3)S1)C(=O)N2 (stereo not drawn) [OGM37] | 3690 | –
COc1ccc2c(c1)C1(NN=C(c3cccc4cccnc34)S1)C(=O)N2 (stereo not drawn) [OGM38] | 2620 | –
COc1ccc2c(c1)NC(=O)C21NN=C(c2ccc3ncccc3c2)S1 (stereo not drawn) [OGM39] | 1170 | –
CCc1ccc2c(c1)C1(NN=C(c3ccc4ncccc4c3)S1)C(=O)N2 (stereo not drawn) [OGM40] | 1190 | –
COC(=O)c1ccc2c(c1)C1(NN=C(c3ccccc3)S1)C(=O)N2 (stereo not drawn) [OGM41] | 2260 | –
O=C(O)c1ccc2c(c1)C1(NN=C(c3ccccc3)S1)C(=O)N2 (stereo not drawn) [OGM42] | 1880 | –
COc1ccc2c(c1)C1(NN=C(c3ccc4ncccc4c3)S1)C(=O)N2 (stereo not drawn) [OGM43] | > 10000 | –
COC(=O)c1ccc2c(c1)C1(NN=C(c3cccc4cccnc34)S1)C(=O)N2 (stereo not drawn) [OGM44] | 4050 | –

SMILES | EC50 (GPR68/OGR1; [2]) [nM] | also measured
O=C1Nc2ccc(F)cc2C12NN=C(c1cccc3cccnc13)S2 (stereo not drawn) [OGM46] | 1470 | –
COC(=O)c1ccc2c(c1)C1(NN=C(c3cccnc3)S1)C(=O)N2 (stereo not drawn) [OGM47] | > 10000 | –
CCc1ccc2c(c1)C1(NN=C(c3cccnc3)S1)C(=O)N2 (stereo not drawn) [OGM48] | > 10000 | –
CCc1ccc2c(c1)C1(NN=C(c3ccnc(OC)c3)S1)C(=O)N2 (stereo not drawn) [OGM49, 5-ethyl-5′-(2-methoxypyridin-4-yl)-1,2-dihydro-3′H-spiro[indole-3,2′-[1,3,4]thiadiazol]-2-one: 2,2,2-trifluoroacetic acid] | 1420 | –
COc1ccc2c(c1)NC(=O)C21NN=C(c2ccnc(OC)c2)S1 (stereo not drawn) [OGM51] | 3570 | –
NS(=O)(=O)c1ccc2c(c1)C1(NN=C(c3ccccc3)S1)C(=O)N2 (stereo not drawn) [OGM52] | 3730 | –
O=C(O)c1ccc2c(c1)C1(NN=C(c3ccc4ncccc4c3)S1)C(=O)N2 (stereo not drawn) [OGM54] | 4770 | –
NS(=O)(=O)c1ccc2c(c1)C1(NN=C(c3ccc4ncccc4c3)S1)C(=O)N2 (stereo not drawn) [OGM55] | 3930 | –
O=C1Nc2ccc(F)cc2C12NN=C(c1cccnc1)S2 (stereo not drawn) [OGM56] | 3580 | –
CCc1ccc2c(c1)C1(NN=C(c3cccc4cccnc34)S1)C(=O)N2 (stereo not drawn) [OGM58] | 5480 | –
COc1ccc2c(c1)NC(=O)C21NN=C(c2ccncc2)S1 (stereo not drawn) [OGM59] | 832 | –
O=C(O)c1ccc2c(c1)C1(NN=C(c3cccnc3)S1)C(=O)N2 (stereo not drawn) [OGM61] | 2190 | –
COc1ccc2c(c1)C1(NN=C(c3ccnc(OC)c3)S1)C(=O)N2 (stereo not drawn) [OGM63] | 3520 | –
CCc1ccc2c(c1)C1(NN=C(c3ccc(C(F)(F)F)nc3)S1)C(=O)N2 (stereo not drawn) [OGM71] | 10500 | –
COc1ccc2c(c1)C1(NN=C(c3ccc(Br)cc3)S1)C(=O)N2 (stereo not drawn) [OGM73] | > 10000 | –
O=C1Nc2ccc(F)cc2C12NN=C(c1ccc(Br)cc1)S2 (stereo not drawn) [OGM74] | 296 | –
COc1ccc2c(c1)C1(NN=C(c3ccc(C(F)(F)F)nc3)S1)C(=O)N2 (stereo not drawn) [OGM75] | 1590 | –
O=C1Nc2ccc(F)cc2C12NN=C(c1ccc(C(F)(F)F)nc1)S2 (stereo not drawn) [OGM76] | 5760 | –
COc1cc(Br)c(S(=O)(=O)Nc2ccc(Cl)c(O[C@@H]3CCN(C)C3)c2)cc1OC [UT2i] | – | induction of zebrafish phenotype (zebrafish embryo; [1]): failed to induce a noticeable phenotype
